Assay results taken from ChEMBL document CHEMBL1667762, “Synthesis, antidepressant and antifungal evaluation of novel 2-chloro-8-methylquinoline amine derivatives” (Eur J Med Chem, 2011).
Values after ≈ are worked out from the molar mass of the structure shown. Active and inactive are the calls of the source. The rule behind the calls is not given here.

Columns and labels:
Aspergillus niger = experiment: Antifungal activity against Aspergillus niger MTCC 281 after 72 hrs; type: functional
Aspergillus flavus = experiment: Antifungal activity against Aspergillus flavus MTCC 277 after 72 hrs; type: functional; settings: for MIC: Aspergillus flavus, MTCC 277, 72 h
[1] = Antifungal activity against Monascus purpureus MTCC 369 after 72 hrs; type: functional
Penicillium citrinum = experiment: Antifungal activity against Penicillium citrinum NCIM 768 after 72 hrs; type: functional
Rattus norvegicus [2] = experiment: Antidepressant activity in Albino rat assessed as immobility time at 20 mg/kg, ip by forced swimming test (reference value: 112.4 +/- 2.88 sec); type: functional; settings: route intraperitoneal
Rattus norvegicus [3] = organism: Rattus norvegicus; experiment: Neurotoxicity in rat assessed as impair in motor coordination at after 30 mins by rotarod test (reference value: 116.50 +/- 1.18 sec); type: toxicity, organism-based; settings: in vivo, 0.5 h
Rattus norvegicus [4] = experiment: Antidepressant activity in Albino rat assessed as immobility time at 100 mg/kg, ip by forced swimming test (reference value: 112.4 +/- 2.88 sec); type: functional; settings: route intraperitoneal
Rattus norvegicus [5] = experiment: Neurotoxicity in rat assessed as impair in motor coordination at 100 mg/kg, ip after 30 mins by rotarod test (reference value: 116.50 +/- 1.18 sec); type: toxicity, organism-based; design: dose 100 mg/kg, route intraperitoneal; settings: in vivo, 0.5 h
Rattus norvegicus [6] = organism: Rattus norvegicus; settings: Brain, 5 uM
Description: Inhibition of MAO in rat brain homogenate at 5 uM using kynuramine as substrate by fluorimetry

Rattus norvegicus [7] = organism: Rattus norvegicus; experiment: Inhibition of MAO in rat brain homogenate at 0.0005 M using kynuramine as substrate by fluorimetry; type: tissue-based
[8] = Aspergillus niger, MTCC 281, 72 h
[9] = Penicillium citrinum, NCIM 768, 72 h

Compound	inhibition zone (IZ) (Aspergillus niger)	MIC (Aspergillus niger; [8]) [µg/mL]	inhibition zone (IZ) (Aspergillus flavus) [mm]	MIC (Aspergillus flavus) [µg/mL]	MIC [1]	inhibition zone (IZ) [1]	MIC (Penicillium citrinum)	inhibition zone (IZ) (Penicillium citrinum)	Time (Rattus norvegicus [2]) [s]	MIC (Penicillium citrinum; [9]) [µg/mL]	Time (Rattus norvegicus [3]) [s]	Time (Rattus norvegicus [4]) [s]	Time (Rattus norvegicus [5]) [s]	inhibition (Rattus norvegicus [6]) [%]	inhibition (Rattus norvegicus [7]) [%]	MIC (Aspergillus niger)
Cc1cccc(NCc2cc3cccc(C)c3nc2Cl)c1	6 mm	100 (≈ 337 µM)	5.5	100 (≈ 337 µM)	inactive	inactive	inactive	inactive	–	–	–	–	–	–	–	–
CNCCC(Oc1ccc(C(F)(F)F)cc1)c1ccccc1 (stereo unspecified) [FLUOXETINE]	10.5 mm	6.25 (≈ 20.2 µM)	–	6.25 (≈ 20.2 µM)	6.25 µg/mL (≈ 20.2 µM)	9 mm	–	8 mm	55.4	6.25 (≈ 20.2 µM)	107.2	–	–	–	–	–
Cc1cccc2cc(CNc3ccccc3)c(Cl)nc12	6 mm	25 (≈ 88.4 µM)	6.5	25 (≈ 88.4 µM)	100 µg/mL (≈ 354 µM)	7 mm	–	6 mm	–	100 (≈ 354 µM)	–	103.2	100.33	–	–	–
Cc1cccc2cc(CNc3ccc(Br)cc3)c(Cl)nc12	5.5 mm	25 (≈ 69.1 µM)	6	25 (≈ 69.1 µM)	100 µg/mL (≈ 276 µM)	7 mm	–	6.5 mm	–	100 (≈ 276 µM)	–	–	–	–	–	–
Cc1cccc2cc(CNc3ccccc3Cl)c(Cl)nc12	5.5 mm	50 (≈ 158 µM)	6	50 (≈ 158 µM)	100 µg/mL (≈ 315 µM)	6.5 mm	–	6 mm	–	100 (≈ 315 µM)	–	–	–	–	–	–
N[C@@H]1C[C@H]1c1ccccc1.N[C@H]1C[C@@H]1c1ccccc1	–	–	–	–	–	–	–	–	–	–	–	–	–	91.6	–	–
Cc1cccc2cc(CNc3ccc(F)c(Cl)c3)c(Cl)nc12	8.5 mm	12.5 (≈ 37.3 µM)	8.5	12.5 (≈ 37.3 µM)	25 µg/mL (≈ 74.6 µM)	5.5 mm	–	6 mm	–	25 (≈ 74.6 µM)	–	74.2	93.67	–	32.1	–
Cc1ccccc1NCc1cc2cccc(C)c2nc1Cl	6.5 mm	100 (≈ 337 µM)	7	100 (≈ 337 µM)	inactive	inactive	inactive	inactive	–	–	–	–	–	–	–	–
Cc1cccc2cc(CNC3CCCCC3)c(Cl)nc12	5.5 mm	200 (≈ 692 µM)	5.5	200 (≈ 692 µM)	inactive	inactive	–	5.5 mm	–	200 (≈ 692 µM)	–	76.6	97.17	–	20.6	–
Cc1cccc2cc(CNc3ccc(F)cc3)c(Cl)nc12	6 mm	12.5 (≈ 41.6 µM)	6	12.5 (≈ 41.6 µM)	50 µg/mL (≈ 166 µM)	8 mm	–	7 mm	–	50 (≈ 166 µM)	–	80.4	91.33	–	19.6	–
CN(C)CCCN1c2ccccc2CCc2ccc(Cl)cc21 [CLOMIPRAMINE]	–	–	–	–	–	–	–	–	63.4	–	110.83	–	–	–	–	–
Cc1cccc2cc(CNc3ccc(Cl)c(Cl)c3)c(Cl)nc12	8 mm	12.5 (≈ 35.5 µM)	9	12.5 (≈ 35.5 µM)	50 µg/mL (≈ 142 µM)	8 mm	–	6.5 mm	–	25 (≈ 71.1 µM)	–	73.6	90.83	–	35	–
CCCCNCc1cc2cccc(C)c2nc1Cl	inactive	–	5	200 (≈ 761 µM)	inactive	inactive	–	5 mm	–	200 (≈ 761 µM)	–	97.2	92.34	–	–	inactive
Cc1cccc2cc(CNc3cccc(Cl)c3)c(Cl)nc12	5.5 mm	12.5 (≈ 39.4 µM)	6	12.5 (≈ 39.4 µM)	50 µg/mL (≈ 158 µM)	6.5 mm	–	5.5 mm	–	25 (≈ 78.8 µM)	–	76.2	97.83	–	26.8	–
Cc1ccc(NCc2cc3cccc(C)c3nc2Cl)cc1	6 mm	50 (≈ 168 µM)	7	50 (≈ 168 µM)	100 µg/mL (≈ 337 µM)	7.5 mm	–	6 mm	–	100 (≈ 337 µM)	–	96.6	96.5	–	–	–
COc1ccc(NCc2cc3cccc(C)c3nc2Cl)cc1	6.5 mm	50 (≈ 160 µM)	6.5	50 (≈ 160 µM)	100 µg/mL (≈ 320 µM)	5.5 mm	–	6.5 mm	–	100 (≈ 320 µM)	–	–	–	–	–	–
OC(Cn1cncn1)(Cn1cncn1)c1ccc(F)cc1F [FLUCONAZOLE]	13.5 mm	6.25 (≈ 20.4 µM)	14.5	6.25 (≈ 20.4 µM)	6.25 µg/mL (≈ 20.4 µM)	11 mm	–	12 mm	–	6.25 (≈ 20.4 µM)	–	–	–	–	–	–
Cc1cccc2cc(CNc3ccc([N+](=O)[O-])cc3)c(Cl)nc12	7 mm	100 (≈ 305 µM)	6.5	100 (≈ 305 µM)	inactive	inactive	inactive	inactive	–	–	–	86.8	93.5	–	–	–
Cc1cccc2cc(CNc3ccc(Cl)cc3)c(Cl)nc12	7.5 mm	12.5 (≈ 39.4 µM)	6.5	12.5 (≈ 39.4 µM)	50 µg/mL (≈ 158 µM)	7 mm	–	6 mm	–	50 (≈ 158 µM)	–	77.2	95.17	–	23.5	–
Cc1cccc2cc(CNCc3ccccc3)c(Cl)nc12	5.5 mm	12.5 (≈ 42.1 µM)	6	12.5 (≈ 42.1 µM)	100 µg/mL (≈ 337 µM)	7 mm	–	6.5 mm	–	100 (≈ 337 µM)	–	78.4	98.33	–	–	–
